Experimental findings from ChEMBL document CHEMBL1134331, “New dermatological agents for the treatment of psoriasis” (J Med Chem, 2001) are described below.

Assay [1] addresses Inosine-5'-monophosphate dehydrogenase (IMPDH) (Homo sapiens, UniProt P20839+P12268). Kind of assay: Inhibition of […] dehydrogenase (IMPDH); range 7-8 nM. It is filed as protein assay.
For a further assay, the target named is T1, Vitamin D3 receptor (Homo sapiens, UniProt P11473).
T1 sequence (P11473 whole entry): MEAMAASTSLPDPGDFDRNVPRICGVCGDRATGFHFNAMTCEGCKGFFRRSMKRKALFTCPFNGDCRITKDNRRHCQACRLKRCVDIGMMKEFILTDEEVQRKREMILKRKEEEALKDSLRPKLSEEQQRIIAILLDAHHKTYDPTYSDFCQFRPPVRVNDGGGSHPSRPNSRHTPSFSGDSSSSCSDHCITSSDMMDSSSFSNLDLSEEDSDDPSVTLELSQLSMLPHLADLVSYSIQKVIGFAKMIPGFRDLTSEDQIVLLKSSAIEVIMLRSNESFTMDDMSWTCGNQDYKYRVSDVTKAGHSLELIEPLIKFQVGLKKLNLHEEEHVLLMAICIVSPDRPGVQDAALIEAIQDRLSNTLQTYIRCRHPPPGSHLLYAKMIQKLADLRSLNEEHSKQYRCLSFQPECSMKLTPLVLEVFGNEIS
The experiment in a line: Binding affinity to VDR receptor.

The species entered for the next assay is Homo sapiens. The experiment in a line: Inhibition of growth of human keratinocytes. The class given is functional.
Assay [2] is described as follows: Competitive inhibition of ATP binding.
Assay [3] can be described thus: Inhibition of growth of T-cell lymphoblastoma; range 1-10 uM. The class given is functional.

On to `COc1c(C)c2c(c(N)c1C/C=C1\CCCC1[C@H](C)C(=O)O)C(=O)OC2` (some centres undefined), for which the 50% inhibitory concentration (IC50) in assay [1] is 7000 pM. At Vitamin D3 receptor, `C=C1/C(=C\C=C2/CCC[C@]3(C)C([C@@H](C)CSc4ccc(C(C)(C)O)cc4)CC[C@@H]23)C[C@@H](O)C[C@@H]1O` (some centres undefined) had an equilibrium dissociation constant (Kd) of 89 pM. The same molecule yielded a half-inhibitory concentration (IC50) in the assay filed under Homo sapiens of 280 pM. `COc1cc2ncnc(Nc3cccc(Br)c3)c2cc1OC` had an IC50 in assay [2] of 25 pM. `C=C1/C(=C\C=C2/CCC[C@]3(C)[C@@H]([C@H](C)/C=C/[C@@H](O)C4CC4)CC[C@@H]23)C[C@@H](O)C[C@@H]1O` [CALCIPOTRIENE] had an IC50 in the assay listed under Homo sapiens of 32000 pM. For `C/C(O)=C(\C#N)C(=O)Nc1ccc(C(F)(F)F)cc1`, the Concentration in assay [3] came out at 1 µM. In the case of `COc1cc(NC(=O)Nc2cccc(CNC(=O)O[C@H]3CCOC3)c2)ccc1-c1cnco1` [MERIMEPODIB], the IC50 in assay [1] came out at 7000 pM. This lies in the single-digit nanomolar range. At Vitamin D3 receptor, `C=C1/C(=C\C=C2/CCC[C@]3(C)C([C@@H](C)COc4ccc(C(C)(C)O)cc4)CC[C@@H]23)C[C@@H](O)C[C@@H]1O` (some centres undefined) showed a Kd of 73 pM. The IC50 in the assay filed under Homo sapiens was found to be 110 pM.
